Experimental data: ChEMBL document CHEMBL5537119 (Eur J Med Chem, 2024)

Legend:
[1] = target: T1, Protein deacetylase HDAC6 (Homo sapiens, UniProt Q9UBN7); assay: Inhibition of human recombinant HDAC6 using Boc-Lys(Ac)-AMC as substrate preincubated for 5 mins followed by substrate addition and measured after 90 mins by fluorescence based microplate reader analysis
T1 sequence (Q9UBN7 whole entry): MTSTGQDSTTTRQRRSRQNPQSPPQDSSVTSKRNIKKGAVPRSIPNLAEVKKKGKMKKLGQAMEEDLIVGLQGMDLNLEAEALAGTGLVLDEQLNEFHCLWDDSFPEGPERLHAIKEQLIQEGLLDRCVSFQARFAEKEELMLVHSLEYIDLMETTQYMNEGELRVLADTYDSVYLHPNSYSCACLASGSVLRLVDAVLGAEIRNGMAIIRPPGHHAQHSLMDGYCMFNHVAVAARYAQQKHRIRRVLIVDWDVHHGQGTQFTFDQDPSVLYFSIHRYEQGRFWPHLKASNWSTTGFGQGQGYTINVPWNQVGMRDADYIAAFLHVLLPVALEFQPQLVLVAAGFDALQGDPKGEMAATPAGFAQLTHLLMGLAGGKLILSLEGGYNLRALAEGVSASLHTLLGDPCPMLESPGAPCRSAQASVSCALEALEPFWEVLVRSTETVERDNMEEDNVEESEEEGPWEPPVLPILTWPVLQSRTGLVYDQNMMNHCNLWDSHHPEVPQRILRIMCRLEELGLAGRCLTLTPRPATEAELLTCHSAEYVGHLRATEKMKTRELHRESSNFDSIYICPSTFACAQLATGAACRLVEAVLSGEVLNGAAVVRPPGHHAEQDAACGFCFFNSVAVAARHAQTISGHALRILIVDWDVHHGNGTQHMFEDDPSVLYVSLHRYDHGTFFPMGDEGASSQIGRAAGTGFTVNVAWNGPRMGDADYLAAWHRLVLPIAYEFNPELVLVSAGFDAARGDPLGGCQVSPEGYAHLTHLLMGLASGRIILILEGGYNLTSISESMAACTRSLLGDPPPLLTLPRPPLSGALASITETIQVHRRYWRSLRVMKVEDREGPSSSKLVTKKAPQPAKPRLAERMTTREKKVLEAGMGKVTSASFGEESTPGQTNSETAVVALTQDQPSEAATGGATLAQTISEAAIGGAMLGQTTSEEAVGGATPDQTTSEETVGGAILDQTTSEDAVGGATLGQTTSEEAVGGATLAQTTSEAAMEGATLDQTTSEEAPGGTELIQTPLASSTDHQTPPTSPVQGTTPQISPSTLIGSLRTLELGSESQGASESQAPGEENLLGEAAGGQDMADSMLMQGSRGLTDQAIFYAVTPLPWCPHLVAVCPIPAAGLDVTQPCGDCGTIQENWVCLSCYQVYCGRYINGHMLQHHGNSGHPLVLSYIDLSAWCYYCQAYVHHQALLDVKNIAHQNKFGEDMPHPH

[2] = Inhibition of Class I/IIb HDAC in human THP-1 cells preincubated for 18 hrs followed by substrate addition and measured after 3 hrs by fluorescence based microplate reader assay; assay type: cell-based
Histone deacetylase 3 = Histone deacetylase 3 (Homo sapiens, UniProt O15379); assay: Inhibition of HDAC3 (unknown origin)
THP-1 = assay: cells; settings: Homo sapiens, THP-1, 72 h
Description: Antiproliferative activity against human THP-1 cells assessed as inhibition of cell growth incubated for 72 hrs by MTT assay

Histone deacetylase 3, sequence (O15379 whole entry): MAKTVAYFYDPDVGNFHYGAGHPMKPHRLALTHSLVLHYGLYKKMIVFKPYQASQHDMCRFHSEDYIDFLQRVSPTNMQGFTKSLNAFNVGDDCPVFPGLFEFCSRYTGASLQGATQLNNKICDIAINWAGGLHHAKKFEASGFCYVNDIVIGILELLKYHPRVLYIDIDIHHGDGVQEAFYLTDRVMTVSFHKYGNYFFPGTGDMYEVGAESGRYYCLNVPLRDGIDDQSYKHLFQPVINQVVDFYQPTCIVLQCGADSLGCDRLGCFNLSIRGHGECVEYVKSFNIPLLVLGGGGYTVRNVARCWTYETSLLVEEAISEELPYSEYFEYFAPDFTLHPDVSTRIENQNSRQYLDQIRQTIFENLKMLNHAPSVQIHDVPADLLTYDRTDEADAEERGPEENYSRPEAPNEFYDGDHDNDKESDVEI

IC50 [1]: > 100 µM
IC50 [2]: > 100 µM
IC50 (Histone deacetylase 3): > 100 µM
IC50 (THP-1): ~100 µM
Structure (SMILES): O=C(NOCc1coc(-c2ccccc2)n1)c1ccc(-c2noc(C(F)(F)F)n2)cc1
